Common to all, as to format: cell-based
Experiment [1] relates to Aspergillus niger ATCC 6275. The experiment is described as follows: MIC values, water-insoluble (covered area of plates, solutions in acetone). The following applies: solution in acetone, 100% means no inhibiting action. An excerpt:
(§1) [table] The size of the covered areas of the plates is given in %; 100% means no inhibiting action.

In experiment [2] the test system is Candida albicans ATCC 10231. The experiment is described as above. The following applies: solution in acetone, 100% means no inhibiting action.
Description: as §1

The test system of experiment [3] is Escherichia coli ATCC 11229. The description is as above. The following applies: solution in acetone, 100% means no inhibiting action.
Description: as §1

The test system of experiment [4] is Staphylococcus aureus ATCC 6538. The experiment is described as above. The following applies: solution in acetone, 100% means no inhibiting action.
Description: as §1

The subject of experiment [5] is Candida albicans ATCC 10231. Put plainly: Plate diffusion test (agar diffusion test). As to conditions: aromatic alcohol 1 part, dimethylformamide 6 parts. An excerpt:
(§2) Standard formulation: • aromatic alcohol 1 part • dimethylformamide 6 parts [table] The diameters of the inhibition zones are given in mm.
On the technique in general: A growth-free zone around the sample is the usual read-out of agar diffusion tests.

The test system of experiment [6] is Escherichia coli ATCC 11229. Put plainly: Plate diffusion test (agar diffusion test). The following applies: aromatic alcohol 1 part, dimethylformamide 6 parts.
Description: as §2

Experiment [7] has as its system Pseudomonas aeruginosa ATCC 15442. The experiment is described as follows: Plate diffusion test (agar diffusion test). The following applies: aromatic alcohol 1 part, dimethylformamide 6 parts.
Description: as §2

Experiment [8] concerns Staphylococcus aureus ATCC 6538. Put plainly: Plate diffusion test (agar diffusion test). The following applies: aromatic alcohol 1 part, dimethylformamide 6 parts.
Description: as §2

A further experiment concerns P. vulgaris.
Description: as §2

This is an account of results in patent EP0799174B1, “BIOCIDAL ALCOHOLS, THEIR PRODUCTION AND THEIR USE” (SCHÜLKE & MAYR GMBH, priority 1994, dated 1996).

For the molecule `CCC(CO)Cc1ccccc1Cl` (stereo not drawn) [Alcohol 9], the “size of the covered areas of the plates, A. niger” value (from here on “size … A. niger”) in experiment [1] (concentration 0.25 % by wt.) came to 100%; in experiment [1] (concentration 0.50 % by wt.), 90%; in experiment [1] (concentration 1.00 % by wt.) it was 20%. In addition, the “size of the covered areas of the plates, C. albicans” value (shortened to “size … C. albicans”) in [2] (concentration 0.25 % by wt.) was found to be 100%; in experiment [2] (concentration 0.50 % by wt.), 100%; in [2] (concentration 1.00 % by wt.) it was 80%. The “size of the covered areas of the plates, E. coli” value (shortened to “size … E. coli”) in experiment [3] (concentration 0.25 % by wt.), in experiment [3] (concentration 0.50 % by wt.) and in experiment [3] (concentration 1.00 % by wt.) was 100% each time. Also, the “size of the covered areas of the plates, S. aureus” value (shortened to “size … S. aureus”) in [4] (concentration 0.25 % by wt.) worked out at 100%; in [4] (concentration 0.50 % by wt.) it was 100%; in [4] (concentration 1.00 % by wt.) it was 80%. The “diameters of the inhibition zones, C. albicans” value in experiment [5] came out at 15 mm. In experiment [6], the “diameters of the inhibition zones, E. coli” value is recorded as 11 mm. The “diameters of the inhibition zones, P. aeruginosa” value in experiment [7] came to 0 mm. Besides, the “diameters of the inhibition zones, S. aureus” value in experiment [8] is listed as 15 mm. The “diameters of the inhibition zones, P. vulgaris” value in the experiment on P. vulgaris stood at 0 mm.
In the case of `CCC(CO)Cc1ccc(Cl)cc1` (stereo not drawn) [Alcohol 10], the “size … A. niger” value in [1] (concentration 0.125 % by wt.) is 100%; in experiment [1] (concentration 0.25 % by wt.) it was 90%; in [1] (concentration 0.50 % by wt.), 70%; in experiment [1] (concentration 1.00 % by wt.) it was 10%. Further, the “size … C. albicans” value worked out at 100% in [2] (concentration 0.125 % by wt.), 100% in experiment [2] (concentration 0.25 % by wt.), 90% in experiment [2] (concentration 0.50 % by wt.) and 10% in experiment [2] (concentration 1.00 % by wt.). Further, the “size … E. coli” value in [3] (concentration 0.125 % by wt.), in experiment [3] (concentration 0.25 % by wt.), in experiment [3] (concentration 0.50 % by wt.) and in experiment [3] (concentration 1.00 % by wt.) was 100% each time. Further, the “size … S. aureus” value came to 100% in [4] (concentration 0.125 % by wt.), 100% in [4] (concentration 0.25 % by wt.), 100% in [4] (concentration 0.50 % by wt.) and 10% in [4] (concentration 1.00 % by wt.). Moreover, the “diameters of the inhibition zones, C. albicans” value in experiment [5] was 15 mm. The “diameters of the inhibition zones, E. coli” value in experiment [6] was 11 mm. For the same molecule, the “diameters of the inhibition zones, P. aeruginosa” value in experiment [7] was determined as 0 mm. The “diameters of the inhibition zones, S. aureus” value in experiment [8] is recorded as 14 mm. In addition, the “diameters of the inhibition zones, P. vulgaris” value in the experiment on P. vulgaris is listed as 0 mm.
`CCC(CO)Cc1ccc(Cl)c(Cl)c1` (stereo not drawn) [Alcohol 11]: the “size … A. niger” value is recorded as 100% in [1] (concentration 0.25 % by wt.), 70% in experiment [1] (concentration 0.50 % by wt.) and 10% in experiment [1] (concentration 1.00 % by wt.). In addition, the “size … C. albicans” value in [2] (concentration 0.25 % by wt.) turned out to be 100%; in experiment [2] (concentration 0.50 % by wt.), 80%; in experiment [2] (concentration 1.00 % by wt.), 10%. In addition, the entries for the “size … E. coli” value in experiment [3] (concentration 0.25 % by wt.), in [3] (concentration 0.50 % by wt.) and in experiment [3] (concentration 1.00 % by wt.) were 100%, 100% and 90%, respectively. For the same molecule, the “size … S. aureus” value is on record as 100% in experiment [4] (concentration 0.25 % by wt.), 90% in experiment [4] (concentration 0.50 % by wt.) and 5% in [4] (concentration 1.00 % by wt.). Moreover, the “diameters of the inhibition zones, C. albicans” value in [5] was 13 mm. The “diameters of the inhibition zones, E. coli” value in experiment [6] is 0 mm. In addition, the “diameters of the inhibition zones, P. aeruginosa” value in [7] stood at 0 mm. The “diameters of the inhibition zones, S. aureus” value in experiment [8] is given as 17 mm. For the same molecule, the “diameters of the inhibition zones, P. vulgaris” value in the experiment with P. vulgaris turned out to be 0 mm.
Consider `CCC(CO)Cc1ccccc1C` (stereo not drawn) [Alcohol 12], for which the “size … A. niger” value in experiment [1] (concentration 0.50 % by wt.) is recorded as 100%; in experiment [1] (concentration 1.00 % by wt.), 80%. Besides, the “size … C. albicans” value is 100% in experiment [2] (concentration 0.50 % by wt.) and 80% in experiment [2] (concentration 1.00 % by wt.). For the same molecule, the “size … E. coli” value in experiment [3] (concentration 0.50 % by wt.) and in experiment [3] (concentration 1.00 % by wt.) was 100% each time. Moreover, the “size … S. aureus” value in experiment [4] (concentration 0.50 % by wt.) is 100%; in experiment [4] (concentration 1.00 % by wt.), 90%. Besides, in experiment [5], the “diameters of the inhibition zones, C. albicans” value is on record as 22 mm. In addition, in experiment [6], the “diameters of the inhibition zones, E. coli” value came out at 17 mm. Further, the “diameters of the inhibition zones, P. aeruginosa” value in experiment [7] stood at 15 mm. Further, the “diameters of the inhibition zones, S. aureus” value in experiment [8] worked out at 20 mm. Moreover, the “diameters of the inhibition zones, P. vulgaris” value in the experiment on P. vulgaris turned out to be 13 mm.
As to `CCC(CO)Cc1ccc(C)cc1` (stereo not drawn) [Alcohol 13], the “size … A. niger” value in experiment [1] (concentration 0.25 % by wt.) was 100%; in experiment [1] (concentration 0.50 % by wt.) it was 90%; in experiment [1] (concentration 1.00 % by wt.), 20%. In addition, the “size … C. albicans” value is 100% in experiment [2] (concentration 0.25 % by wt.), 100% in experiment [2] (concentration 0.50 % by wt.) and 90% in experiment [2] (concentration 1.00 % by wt.). Besides, the “size … E. coli” value in experiment [3] (concentration 0.25 % by wt.) came out at 100%; in experiment [3] (concentration 0.50 % by wt.), 100%; in experiment [3] (concentration 1.00 % by wt.), 95%. Besides, the “size … S. aureus” value in experiment [4] (concentration 0.25 % by wt.) worked out at 100%; in [4] (concentration 0.50 % by wt.) it was 100%; in experiment [4] (concentration 1.00 % by wt.) it was 90%. In experiment [5], the “diameters of the inhibition zones, C. albicans” value turned out to be 19 mm. Moreover, the “diameters of the inhibition zones, E. coli” value in experiment [6] stood at 13 mm. The “diameters of the inhibition zones, P. aeruginosa” value in [7] was found to be 13 mm. In addition, the “diameters of the inhibition zones, S. aureus” value in experiment [8] stood at 16 mm. In the experiment with P. vulgaris, the “diameters of the inhibition zones, P. vulgaris” value was 14 mm.
With `CCC(CO)Cc1ccc(C)c(C)c1` (stereo not drawn) [Alcohol 14], the “size … A. niger” value was 100% in experiment [1] (concentration 0.125 % by wt.), 90% in [1] (concentration 0.25 % by wt.), 80% in [1] (concentration 0.50 % by wt.) and 10% in [1] (concentration 1.00 % by wt.). Besides, the “size … C. albicans” value in experiment [2] (concentration 0.125 % by wt.) worked out at 100%; in experiment [2] (concentration 0.25 % by wt.), 100%; in experiment [2] (concentration 0.50 % by wt.), 100%; in experiment [2] (concentration 1.00 % by wt.), 20%. The “size … E. coli” value in experiment [3] (concentration 0.125 % by wt.), in [3] (concentration 0.25 % by wt.), in experiment [3] (concentration 0.50 % by wt.) and in [3] (concentration 1.00 % by wt.) was 100% throughout. The “size … S. aureus” value came to 100% in experiment [4] (concentration 0.125 % by wt.), 100% in experiment [4] (concentration 0.25 % by wt.), 90% in experiment [4] (concentration 0.50 % by wt.) and 30% in experiment [4] (concentration 1.00 % by wt.). For the same molecule, the “diameters of the inhibition zones, C. albicans” value in experiment [5] is given as 22 mm. Moreover, the “diameters of the inhibition zones, E. coli” value in [6] is 15 mm. In addition, the “diameters of the inhibition zones, P. aeruginosa” value in [7] was 18 mm. In addition, the “diameters of the inhibition zones, S. aureus” value in [8] is 18 mm. Also, in the experiment on P. vulgaris, the “diameters of the inhibition zones, P. vulgaris” value stood at 0 mm.
On to `CCC(CO)Cc1ccc(OC)c(OC)c1` (stereo not drawn) [Alcohol 16], for which the “diameters of the inhibition zones, C. albicans” value in [5] is 28 mm. Further, the “diameters of the inhibition zones, E. coli” value in [6] is on record as 17 mm. The “diameters of the inhibition zones, P. aeruginosa” value in [7] is listed as 18 mm. Besides, the “diameters of the inhibition zones, S. aureus” value in [8] was 18 mm. Besides, the “diameters of the inhibition zones, P. vulgaris” value in the experiment with P. vulgaris worked out at 17 mm.
